Results taken from US11098055B2, “Ester ACC inhibitors and uses thereof” (Gilead Apollo, LLC, priority 2015, dated 2021).
≈ marks a conversion by molar mass, not a printed value.

Legend:
C. krusei ATCC 6258 = test: Anti-Fungal (Candida) Activity Assay, broth microtiter MIC; assay type: cell-based, Candida krusei; details: Pichia kudriavzevii, ATCC6258, 48 h, 3 replicates, MIC read at 48 h
Experimental: (§1) Compounds of the present invention were evaluated in an Anti-Fungal Activity Assay. An exemplary procedure for the assay, which measures the susceptibility of various Candida species to anti-fungal compounds, follows. Compounds to be tested (including fluconazole and amphotericin B) were dissolved in DMSO to obtain a solution having a concentration of 1 mg/mL. These stock solutions were sterile filtered using a 0.22 um nylon syringe filter, then diluted in sterile water to achieve a final concentration of 128 μg/mL.
(§2) All species were grown from frozen stock by directly plating on to freshly prepared Sabouraud Dextrose agar (BD, Difco) and incubated overnight in ambient air at 35° C. for 24 h. A direct suspension was prepared in RPMI 1640+MOPS (Lonza, Biowhittaker) by taking individual colonies from the overnight cultures using sterile swabs soaked in sterile saline. The concentration of the suspension was determined using pre-determined standard curves. These suspensions were then diluted down to 5×10^3 CFU/mL to achieve a final concentration of 2.5×10^3 CFU/mL once added to the microtiter plate as per CLSI guidelines (M27-A3, Vol. 28 No. 14).
(§3) Broth microtiter MIC challenge plates were prepared following CLSI guidelines (M27-A3, Vol. 28 No. 14). The original CLSI guidelines focused on reading Candida MICs after 48 h of incubation. As reading after only 24 h offers a clear advantage of patient care, QC limits are being established for all drugs at 24 h. That being said there are no known interpretive breakpoints for amphotericin B at 24 h and the current fluconazole interpretive breakpoints are based on a 48 h reading. The MIC for the test compounds were recorded at 48 h. All MIC determinations were achieved by visually comparing the growth found in the antibiotic challenged wells to that of the growth control.

C. albicans ATCC 90028 = test: as above; assay type: cell-based; details: ATCC90028, 48 h, 3 replicates, MIC read at 48 h
Experimental: as §1, §2, §3

[1] = tested on: C. parapsilosis ATCC 22019; test: as above; assay type: cell-based; details: Lodderomyces parapsilosis, ATCC22019, 48 h, 3 replicates, MIC read at 48 h
Experimental: as §1, §2, §3

fACC2 = fACC2 (UniProt Q00955); test: In vitro ACC2 inhibition assay (ADP-Glo), fungal ACC2; assay type: biochemical
Experimental: An exemplary procedure for the in vitro ACC inhibition assay, which can be used to determine the inhibitory action of compounds of the invention toward either human (hACC2) or fungal (fACC2) ACC2, follows. The ADP-Glo™ Kinase Assay kit from Promega was used. The ADP-Glo™ Kinase Assay is a luminescent ADP detection assay to measure enzymatic activity by quantifying the amount of ADP produced during an enzyme reaction. The assay is performed in two steps; first, after the enzyme reaction, an equal volume of ADP-Glo™ Reagent is added to terminate the reaction and deplete the remaining ATP. Second, the Kinase Detection Reagent is added to simultaneously convert ADP to ATP and allow the newly synthesized ATP to be measured using a luciferase/luciferin reaction. Luminescence can be correlated to ADP concentrations by using an ATP-to-ADP conversion curve. The detailed procedure is as follows. 50 μL of the compound being tested (600 μM in DMSO) was added to a 384-well dilution plate. The compound was diluted 1:3 in succession in DMSO for each row for 11 wells. 0.5 μL ACC2 working solution was added to 384-well white Optiplate assay plate. 0.5 μL diluted compound solution in each column from step 2 was added to assay plate, each row containing 2 replicates. For the last 2 rows, 0.5 μL negative control (DMSO) was added in one row and 0.5 μL positive control (compound I-97) in the other. The plates were incubated at room temperature for 15 minutes. 5 μL substrate working solution was added to each well to initiate reaction. Final ACC2 reaction concentrations consist of: 5 nM ACC2, 20 μM ATP, 20 μM acetyl-CoA, 12 mM NaHCO3, 0.01% Brij35, 2 mM DTT, 5% DMSO, test compound concentrations: 30 μM, 10 μM, 3.33 μM, 1.11 μM, 0.37 μM, 0.123 μM, 0.0411 μM, 0.0137 μM, 0.00457 μM, 0.00152 μM, and 0.00051 μM. Plates were incubated at room temperature for 60 minutes. 10 μL ADP glo reagent was added. Plates were incubated at room temperature for 40 minutes. 20 μL kinase detection reagent was added. Plates were incubated at room temperature for 40 minutes, and then read on a Perkin Elmer EnVision 2104 plate reader for luminescence as Relative Light Units (RLU).
Data for each concentration, as well as the positive and negative controls, were averaged, and the standard deviation calculated. Percent inhibition was calculated by the formula: 100×(average negative control−compound)/(average negative control−average positive control). The IC50 for each compound was calculated by fitting the data with a non-linear regression equation: Y=Bottom+(Top−Bottom)/(1+10^((Log IC50−X)*HillSlope)), where X is the log of compound concentration and Y is percent inhibition.

Chain of fACC2 (Q00955 whole entry): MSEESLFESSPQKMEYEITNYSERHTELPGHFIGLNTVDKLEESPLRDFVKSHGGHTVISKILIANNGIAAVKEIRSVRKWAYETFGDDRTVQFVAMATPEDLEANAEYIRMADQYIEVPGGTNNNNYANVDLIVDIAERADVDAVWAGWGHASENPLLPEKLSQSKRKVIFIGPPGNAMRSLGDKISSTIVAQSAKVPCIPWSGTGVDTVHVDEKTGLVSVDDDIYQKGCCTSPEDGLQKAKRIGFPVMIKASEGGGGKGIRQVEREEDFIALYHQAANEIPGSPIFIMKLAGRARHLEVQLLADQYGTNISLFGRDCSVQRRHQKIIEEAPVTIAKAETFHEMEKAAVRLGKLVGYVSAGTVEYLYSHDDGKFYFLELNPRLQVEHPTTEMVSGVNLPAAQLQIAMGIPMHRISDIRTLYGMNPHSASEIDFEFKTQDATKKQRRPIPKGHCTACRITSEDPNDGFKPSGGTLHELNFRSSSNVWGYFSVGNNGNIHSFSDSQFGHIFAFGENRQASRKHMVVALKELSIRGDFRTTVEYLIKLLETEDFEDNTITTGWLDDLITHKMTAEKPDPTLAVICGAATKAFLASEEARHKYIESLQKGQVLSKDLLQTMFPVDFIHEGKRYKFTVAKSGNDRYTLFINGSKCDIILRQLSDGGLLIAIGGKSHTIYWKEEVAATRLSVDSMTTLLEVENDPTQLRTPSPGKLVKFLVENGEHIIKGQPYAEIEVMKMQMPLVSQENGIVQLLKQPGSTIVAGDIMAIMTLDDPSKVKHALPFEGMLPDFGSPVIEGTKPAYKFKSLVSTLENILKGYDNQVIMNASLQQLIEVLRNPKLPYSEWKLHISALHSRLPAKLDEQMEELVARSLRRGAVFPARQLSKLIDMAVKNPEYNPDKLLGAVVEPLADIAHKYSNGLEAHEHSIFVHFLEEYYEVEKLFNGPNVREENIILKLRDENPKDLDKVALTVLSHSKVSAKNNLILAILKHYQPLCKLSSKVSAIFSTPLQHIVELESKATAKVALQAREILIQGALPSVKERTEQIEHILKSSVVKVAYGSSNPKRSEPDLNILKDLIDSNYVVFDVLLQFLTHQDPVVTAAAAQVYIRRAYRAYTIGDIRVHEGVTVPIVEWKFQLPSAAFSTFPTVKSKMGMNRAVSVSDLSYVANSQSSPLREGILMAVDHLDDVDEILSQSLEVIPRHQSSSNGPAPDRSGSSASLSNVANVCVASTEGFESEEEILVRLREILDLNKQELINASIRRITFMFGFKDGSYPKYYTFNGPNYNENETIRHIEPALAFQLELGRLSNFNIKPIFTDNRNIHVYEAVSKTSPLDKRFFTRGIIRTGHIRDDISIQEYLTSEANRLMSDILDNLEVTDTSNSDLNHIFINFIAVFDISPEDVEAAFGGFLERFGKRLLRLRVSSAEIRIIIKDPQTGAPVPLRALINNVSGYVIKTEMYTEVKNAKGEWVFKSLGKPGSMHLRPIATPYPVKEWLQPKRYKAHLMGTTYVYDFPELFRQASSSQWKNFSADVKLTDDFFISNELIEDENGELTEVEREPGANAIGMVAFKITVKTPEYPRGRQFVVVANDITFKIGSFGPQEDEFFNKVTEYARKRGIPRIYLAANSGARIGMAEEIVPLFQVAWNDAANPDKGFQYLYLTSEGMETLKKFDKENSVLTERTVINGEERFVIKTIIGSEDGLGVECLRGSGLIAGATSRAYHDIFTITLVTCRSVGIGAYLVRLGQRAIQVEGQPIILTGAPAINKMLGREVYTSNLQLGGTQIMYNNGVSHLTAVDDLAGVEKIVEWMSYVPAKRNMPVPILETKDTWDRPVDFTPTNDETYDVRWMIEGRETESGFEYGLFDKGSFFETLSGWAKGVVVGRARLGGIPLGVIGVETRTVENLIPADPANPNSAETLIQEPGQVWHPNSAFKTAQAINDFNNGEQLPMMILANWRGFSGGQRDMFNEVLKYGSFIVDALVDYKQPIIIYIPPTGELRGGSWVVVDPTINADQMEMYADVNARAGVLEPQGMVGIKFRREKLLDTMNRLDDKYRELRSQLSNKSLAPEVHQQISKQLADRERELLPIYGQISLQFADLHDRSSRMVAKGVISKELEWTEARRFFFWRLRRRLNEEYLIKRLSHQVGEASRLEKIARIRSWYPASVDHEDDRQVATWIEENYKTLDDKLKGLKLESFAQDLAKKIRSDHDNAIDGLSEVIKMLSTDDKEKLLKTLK

| Structure (SMILES) | MIC (C. krusei ATCC 6258; Table 3a) | MIC (C. krusei ATCC 6258; Table 3b (additional results)) | MIC (C. albicans ATCC 90028; Table 3a) | MIC (C. albicans ATCC 90028; Table 3b (additional results)) | MIC ([1]; Table 3a) | MIC ([1]; Table 3b (additional results)) | IC50 (fACC2; Table 2a) | IC50 (fACC2; Table 2b (additional results)) |
| --- | --- | --- | --- | --- | --- | --- | --- | --- |
| CCOC(=O)c1sc2c(c1C)c(=O)n(C(C)(C)C(=O)NC(C)C)c(=O)n2C[C@H](OC(C)C)c1ccccc1OC [Compound I-9, (R)-ethyl 1-(2-isopropoxy-2-(2-methoxyphenyl)ethyl)-3-(1-(isopropylamino)-2-methyl-1-oxopropan-2-yl)-5-methyl-2,4-dioxo-1,2,3,4-tetrahydrothieno[2,3-d]pyrimidine-6-carboxylate] | 2.1 to 4 mg/L (≈ 3.66 to 6.97 µM) | 2.1 to 4 mg/L (≈ 3.66 to 6.97 µM) | 1.1 to 2 mg/L (≈ 1.92 to 3.49 µM) | 1.1 to 2 mg/L (≈ 1.92 to 3.49 µM) | 2.1 to 4 mg/L (≈ 3.66 to 6.97 µM) | 2.1 to 4 mg/L (≈ 3.66 to 6.97 µM) | 0.6 to 3 nM | 0.3 to 3 nM |
| CCOC(=O)c1sc2c(c1C)c(=O)n(C(C)(C)C(=O)N1CCCC1)c(=O)n2C[C@H](OC(C)C)c1ccccc1OC [Compound I-7, (R)-ethyl 1-(2-isopropoxy-2-(2-methoxyphenyl)ethyl)-5-methyl-3-(2-methyl-1-oxo-1-(pyrrolidin-1-yl)propan-2-yl)-2,4-dioxo-1,2,3,4-tetrahydrothieno[2,3-d]pyrimidine-6-carboxylate] | 2.1 to 4 mg/L (≈ 3.59 to 6.83 µM) | 2.1 to 4 mg/L (≈ 3.59 to 6.83 µM) | 2.1 to 4 mg/L (≈ 3.59 to 6.83 µM) | 2.1 to 4 mg/L (≈ 3.59 to 6.83 µM) | 2.1 to 4 mg/L (≈ 3.59 to 6.83 µM) | 2.1 to 4 mg/L (≈ 3.59 to 6.83 µM) | 0.6 to 3 nM | 0.3 to 3 nM |
| CCOC(=O)c1sc2c(c1C)c(=O)n([C@@H](C)C(=O)N(C)C(C)C)c(=O)n2C[C@H](OCCC#N)c1cc(F)ccc1OC [Compound I-28, ethyl 1-((R)-2-(2-cyanoethoxy)-2-(5-fluoro-2-methoxy-phenyl)-ethyl)-3-((S)-1-(isopropyl(methyl)amino)-1-oxopropan-2-yl)-5-methyl-2,4-dioxo-1,2,3,4-tetrahydrothieno[2,3-d]pyrimidine-6-carboxylate] |  | 0.25 to 1 mg/L (≈ 0.415 to 1.66 µM) |  | 2.1 to 4 mg/L (≈ 3.48 to 6.64 µM) |  | 2.1 to 4 mg/L (≈ 3.48 to 6.64 µM) |  | 0.3 to 3 nM |
| CCOC(=O)c1sc2c(c1C)c(=O)n([C@@H](C)C(=O)N1CCCC1)c(=O)n2C[C@H](OCCC#N)c1cc(F)ccc1OC [Compound I-23, ethyl 1-((R)-2-(2-cyanoethoxy)-2-(5-fluoro-2-methoxy-phenyl)ethyl)-5-methyl-2,4-dioxo-3-((S)-1-oxo-1-(pyrrolidin-1-yl)propan-2-yl)-1,2,3,4-tetrahydrothieno[2,3-d]pyrimidine-6-carboxylate] |  | 0.25 to 1 mg/L (≈ 0.416 to 1.66 µM) |  | 2.1 to 4 mg/L (≈ 3.5 to 6.66 µM) |  | > 4.1 mg/L |  | 3 to 10 nM |
| CCNC(=O)[C@@H](C)n1c(=O)c2c(C)c(C(=O)OCC)sc2n(C[C@H](OCCC#N)c2cc(F)ccc2OC)c1=O [Compound I-41, ethyl 1-((R)-2-(2-cyanoethoxy)-2-(5-fluoro-2-methoxy-phenyl)ethyl)-3-((R)-1-(ethylamino)-1-oxopropan-2-yl)-5-methyl-2,4-dioxo-1,2,3,4-tetrahydrothieno[2,3-d]pyrimidine-6-carboxylate] |  | 2.1 to 4 mg/L (≈ 3.65 to 6.96 µM) |  | 2.1 to 4 mg/L (≈ 3.65 to 6.96 µM) |  | 2.1 to 4 mg/L (≈ 3.65 to 6.96 µM) |  | 0.3 to 3 nM |
| CCOC(=O)c1sc2c(c1C)c(=O)n(C(C)(C)C(=O)NC(C)C)c(=O)n2CCc1cc(F)ccc1OC [Compound I-40, ethyl 1-(5-fluoro-2-methoxyphenethyl)-3-(1-(isopropylamino)-2-methyl-1-oxopropan-2-yl)-5-methyl-2,4-dioxo-1,2,3,4-tetrahydrothieno[2,3-d]pyrimidine-6-carboxylate] |  | 2.1 to 4 mg/L (≈ 3.94 to 7.5 µM) |  | 2.1 to 4 mg/L (≈ 3.94 to 7.5 µM) |  | 0.25 to 1 mg/L (≈ 0.468 to 1.87 µM) |  | 3 to 10 nM |
| CCOC(=O)c1sc2c(c1C)c(=O)n([C@H](C)C(=O)N(C)C(C)C)c(=O)n2C[C@H](OCCC#N)c1cc(F)ccc1OC [Compound I-27, ethyl 1-((R)-2-(2-cyanoethoxy)-2-(5-fluoro-2-methoxy-phenyl)ethyl)-3-((R)-1-(isopropyl(methyl)amino)-1-oxopropan-2-yl)-5-methyl-2,4-dioxo-1,2,3,4-tetrahydrothieno[2,3-d]pyrimidine-6-carboxylate] |  | 0.25 to 1 mg/L (≈ 0.415 to 1.66 µM) |  | 2.1 to 4 mg/L (≈ 3.48 to 6.64 µM) |  | 2.1 to 4 mg/L (≈ 3.48 to 6.64 µM) |  | 0.3 to 3 nM |
| CCOC(=O)c1sc2c(c1C)c(=O)n(C(C)(C)C(=O)NC(C)C)c(=O)n2C[C@H](OC1CCOCC1)c1ccccc1OC [Compound I-8, (R)-ethyl 3-(1-(isopropylamino)-2-methyl-1-oxopropan-2-yl)-1-(2-(2-methoxyphenyl)-2-((tetrahydro-2H-pyran-4-yl)oxy)ethyl)-5-methyl-2,4-dioxo-1,2,3,4-tetrahydrothieno[2,3-d]pyrimidine-6-carboxylate] | 0.25 to 1 mg/L (≈ 0.406 to 1.62 µM) | 2.1 to 4 mg/L (≈ 3.41 to 6.5 µM) | 1.1 to 2 mg/L (≈ 1.79 to 3.25 µM) | 1.1 to 2 mg/L (≈ 1.79 to 3.25 µM) | 1.1 to 2 mg/L (≈ 1.79 to 3.25 µM) | 2.1 to 4 mg/L (≈ 3.41 to 6.5 µM) | 0.6 to 3 nM | 0.3 to 3 nM |
| CCOC(=O)c1sc2c(c1C)c(=O)n(C(C)(C)C(=O)N1CCOCC1)c(=O)n2C[C@H](OC(C)C)c1ccccc1OC [Compound I-5, (R)-ethyl 1-(2-isopropoxy-2-(2-methoxyphenyl)ethyl)-5-methyl-3-(2-methyl-1-morpholino-1-oxopropan-2-yl)-2,4-dioxo-1,2,3,4-tetrahydrothieno[2,3-d]pyrimidine-6-carboxylate] | > 4.1 mg/L | 2.1 to 4 mg/L (≈ 3.49 to 6.65 µM) | > 4.1 mg/L | > 4.1 mg/L | > 4.1 mg/L | 2.1 to 4 mg/L (≈ 3.49 to 6.65 µM) | 3 to 10 nM | 3 to 10 nM |
| CCOC(=O)c1sc2c(c1C)c(=O)n(C(C)(C)C(=O)NC(C)C)c(=O)n2C[C@H](OCCO)c1cc(F)ccc1OC [Compound I-18, (R)-ethyl 1-(2-(5-fluoro-2-methoxyphenyl)-2-(2-hydroxy-ethoxy)ethyl)-3-(1-(isopropylamino)-2-methyl-1-oxopropan-2-yl)-5-methyl-2,4-dioxo-1,2,3,4-tetrahydrothieno[2,3-d]pyrimidine-6-carboxylate] | 0.25 to 1 mg/L (≈ 0.421 to 1.68 µM) | 0.25 to 1 mg/L (≈ 0.421 to 1.68 µM) | 1.1 to 2 mg/L (≈ 1.85 to 3.37 µM) | 1.1 to 2 mg/L (≈ 1.85 to 3.37 µM) | 2.1 to 4 mg/L (≈ 3.54 to 6.74 µM) | 1.1 to 2 mg/L (≈ 1.85 to 3.37 µM) | 0.6 to 3 nM |  |
| CCOC(=O)c1sc2c(c1C)c(=O)n([C@@H](C)C(=O)NC(C)C)c(=O)n2C[C@H](OCCC#N)c1cc(F)ccc1OC [Compound I-20, ethyl 1-((R)-2-(2-cyanoethoxy)-2-(5-fluoro-2-methoxy-phenyl)ethyl)-3-((S)-1-(isopropylamino)-1-oxopropan-2-yl)-5-methyl-2,4-dioxo-1,2,3,4-tetrahydrothieno[2,3-d]pyrimidine-6-carboxylate] |  | 1.1 to 2 mg/L (≈ 1.87 to 3.4 µM) |  | 2.1 to 4 mg/L (≈ 3.57 to 6.8 µM) |  | 2.1 to 4 mg/L (≈ 3.57 to 6.8 µM) |  | 0.3 to 3 nM |
